Test results published in PubChem BioAssay AID1963974 (Molecular Pharmacology Branch, DTP, NCI, 2024).

Tested on: 648629-189-R-J1-PDC spheroids with HUVEC/MSC, viability
Experiment: Anticancer human tumor 648629-189-R-J1-PDC patient-derived bladder carcinoma cell line growth inhibition [PI3K]
Settings: for IC50: curve of first compound; for viability, T/C: stronger effect = lower value
Method in brief: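 Viability of mixed-cell spheroids was determined after exposure to pairwise combinations, one partner being inavolisib, alpelisib, duvelisib or copanlisib. Highest tested concentration matched clinical Cmax where known and 10 microM where not, descending in half-log steps.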

[1] = second compound 0.0316 µM, first compound 0.0316 µM
[2] = second compound 0.0316 µM, first compound 0.1 µM
[3] = second compound 0.0316 µM, first compound 0.316 µM
[4] = second compound 0.0316 µM, first compound 1 µM
[5] = second compound 0.0316 µM, first compound 3.16 µM
[6] = second compound 0.0316 µM, first compound 10 µM
[7] = second compound 0.1 µM, first compound 0.0316 µM
[8] = second compound 0.1 µM, first compound 0.1 µM
[9] = second compound 0.1 µM, first compound 0.316 µM
[10] = second compound 0.1 µM, first compound 1 µM
[11] = second compound 0.1 µM, first compound 3.16 µM
[12] = second compound 0.1 µM, first compound 10 µM
[13] = second compound 0.316 µM, first compound 0.0316 µM
[14] = second compound 0.316 µM, first compound 0.1 µM
[15] = second compound 0.316 µM, first compound 0.316 µM
[16] = second compound 0.316 µM, first compound 1 µM
[17] = second compound 0.316 µM, first compound 3.16 µM
[18] = second compound 0.316 µM, first compound 10 µM
[19] = second compound 1 µM, first compound 0.0316 µM
[20] = second compound 1 µM, first compound 0.1 µM
[21] = second compound 1 µM, first compound 0.316 µM
[22] = second compound 1 µM, first compound 1 µM
[23] = second compound 1 µM, first compound 3.16 µM
[24] = second compound 1 µM, first compound 10 µM
[25] = second compound 3.16 µM, first compound 0.0316 µM
[26] = second compound 3.16 µM, first compound 0.1 µM
[27] = second compound 3.16 µM, first compound 0.316 µM
[28] = second compound 3.16 µM, first compound 1 µM
[29] = second compound 3.16 µM, first compound 3.16 µM
[30] = second compound 3.16 µM, first compound 10 µM
[31] = second compound 10 µM, first compound 0.0316 µM
[32] = second compound 10 µM, first compound 0.1 µM
[33] = second compound 10 µM, first compound 0.316 µM
[34] = second compound 10 µM, first compound 1 µM
[35] = second compound 10 µM, first compound 3.16 µM
[36] = second compound 10 µM, first compound 10 µM
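Note: spheroids exposed to agents for seven days before reading.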
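Throughout, for viability, T/C: percent of vehicle control luminescence where 100% = DMSO treated spheroids.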

## C=CC(=O)N1CCN(c2nc(=O)n(-c3c(C)ccnc3C(C)C)c3nc(-c4c(O)cccc4F)c(F)cc23)C(C)C1 (stereo not given) + Cc1nc(NC(=O)N2CCCC2C(N)=O)sc1-c1ccnc(C(C)(C)C(F)(F)F)c1
Second compound 0.0316 µM
  IC50: > 10000 nM
Second compound 0.1 µM
  IC50: > 10000 nM
Second compound 0.316 µM
  IC50: > 10000 nM
Second compound 1 µM
  IC50: > 10000 nM
Second compound 3.16 µM
  IC50: > 10000 nM
Second compound 10 µM
  IC50: < 31.6 nM
[1]
  viability, T/C: 99%
[2]
  viability, T/C: 101%
[3]
  viability, T/C: 107%
[4]
  viability, T/C: 105%
[5]
  viability, T/C: 113%
[6]
  viability, T/C: 82.8%
[7]
  viability, T/C: 92.2%
[8]
  viability, T/C: 102%
[9]
  viability, T/C: 107%
[10]
  viability, T/C: 99%
[11]
  viability, T/C: 106%
[12]
  viability, T/C: 90.3%
[13]
  viability, T/C: 83.5%
[14]
  viability, T/C: 95%
[15]
  viability, T/C: 95.6%
[16]
  viability, T/C: 96.3%
[17]
  viability, T/C: 107%
[18]
  viability, T/C: 84.7%
[19]
  viability, T/C: 73.4%
[20]
  viability, T/C: 82.7%
[21]
  viability, T/C: 87.5%
[22]
  viability, T/C: 86.5%
[23]
  viability, T/C: 88.2%
[24]
  viability, T/C: 79.7%
[25]
  viability, T/C: 61.2%
[26]
  viability, T/C: 57.5%
[27]
  viability, T/C: 65%
[28]
  viability, T/C: 72%
[29]
  viability, T/C: 72.5%
[30]
  viability, T/C: 70.8%
[31]
  viability, T/C: 39.5%
[32]
  viability, T/C: 40.7%
[33]
  viability, T/C: 42.4%
[34]
  viability, T/C: 41.5%
[35]
  viability, T/C: 47.1%
[36]
  viability, T/C: 38.4%

## CC(C)NCC(C(=O)N1CCN(c2ncnc3c2C(C)CC3O)CC1)c1ccc(Cl)cc1 (stereo not given) + Cc1nc(NC(=O)N2CCCC2C(N)=O)sc1-c1ccnc(C(C)(C)C(F)(F)F)c1
Second compound 0.0316 µM
  IC50: 719 nM
Second compound 0.1 µM
  IC50: 784 nM
Second compound 0.316 µM
  IC50: 648 nM
Second compound 1 µM
  IC50: 506 nM
Second compound 3.16 µM
  IC50: 154 nM
Second compound 10 µM
  IC50: < 31.6 nM
[1]
  viability, T/C: 105%
[2]
  viability, T/C: 82.2%
[3]
  viability, T/C: 73.8%
[4]
  viability, T/C: 40.5%
[5]
  viability, T/C: 23.2%
[6]
  viability, T/C: 15.7%
[7]
  viability, T/C: 102%
[8]
  viability, T/C: 91%
[9]
  viability, T/C: 75.2%
[10]
  viability, T/C: 42.2%
[11]
  viability, T/C: 23.1%
[12]
  viability, T/C: 12.8%
[13]
  viability, T/C: 84.1%
[14]
  viability, T/C: 80.6%
[15]
  viability, T/C: 70.6%
[16]
  viability, T/C: 36.7%
[17]
  viability, T/C: 22%
[18]
  viability, T/C: 12.5%
[19]
  viability, T/C: 69.6%
[20]
  viability, T/C: 88.4%
[21]
  viability, T/C: 57.1%
[22]
  viability, T/C: 34.2%
[23]
  viability, T/C: 21.5%
[24]
  viability, T/C: 12.4%
[25]
  viability, T/C: 61.1%
[26]
  viability, T/C: 53.6%
[27]
  viability, T/C: 43.8%
[28]
  viability, T/C: 32.8%
[29]
  viability, T/C: 20.8%
[30]
  viability, T/C: 10.1%
[31]
  viability, T/C: 38%
[32]
  viability, T/C: 34.6%
[33]
  viability, T/C: 28.7%
[34]
  viability, T/C: 20.1%
[35]
  viability, T/C: 13.2%
[36]
  viability, T/C: 5.54%

## CCN1CCN(Cc2ccc(Nc3ncc(F)c(-c4cc(F)c5nc(C)n(C(C)C)c5c4)n3)nc2)CC1 + Cc1nc(NC(=O)N2CCCC2C(N)=O)sc1-c1ccnc(C(C)(C)C(F)(F)F)c1
Second compound 0.0316 µM
  IC50: > 1000 nM
Second compound 0.1 µM
  IC50: > 1000 nM
Second compound 0.316 µM
  IC50: > 1000 nM
Second compound 1 µM
  IC50: > 1000 nM
Second compound 3.16 µM
  IC50: > 1000 nM
Second compound 10 µM
  IC50: < 3.16 nM
Second compound 0.0316 µM, first compound 0.00316 µM
  viability, T/C: 96.4%
Second compound 0.0316 µM, first compound 0.01 µM
  viability, T/C: 107%
[1]
  viability, T/C: 104%
[2]
  viability, T/C: 99.2%
[3]
  viability, T/C: 119%
[4]
  viability, T/C: 120%
Second compound 0.1 µM, first compound 0.00316 µM
  viability, T/C: 101%
Second compound 0.1 µM, first compound 0.01 µM
  viability, T/C: 103%
[7]
  viability, T/C: 101%
[8]
  viability, T/C: 114%
[9]
  viability, T/C: 100%
[10]
  viability, T/C: 109%
Second compound 0.316 µM, first compound 0.00316 µM
  viability, T/C: 88.8%
Second compound 0.316 µM, first compound 0.01 µM
  viability, T/C: 93.7%
[13]
  viability, T/C: 90%
[14]
  viability, T/C: 91.6%
[15]
  viability, T/C: 96.9%
[16]
  viability, T/C: 101%
Second compound 1 µM, first compound 0.00316 µM
  viability, T/C: 78.2%
Second compound 1 µM, first compound 0.01 µM
  viability, T/C: 75.5%
[19]
  viability, T/C: 73%
[20]
  viability, T/C: 80.4%
[21]
  viability, T/C: 83.6%
[22]
  viability, T/C: 83.1%
Second compound 3.16 µM, first compound 0.00316 µM
  viability, T/C: 49.9%
Second compound 3.16 µM, first compound 0.01 µM
  viability, T/C: 57.7%
[25]
  viability, T/C: 53.8%
[26]
  viability, T/C: 59.3%
[27]
  viability, T/C: 64.7%
[28]
  viability, T/C: 69.8%
Second compound 10 µM, first compound 0.00316 µM
  viability, T/C: 41.9%
Second compound 10 µM, first compound 0.01 µM
  viability, T/C: 38.8%
[31]
  viability, T/C: 40.7%
[32]
  viability, T/C: 41.5%
[33]
  viability, T/C: 43.5%
[34]
  viability, T/C: 41.6%

## Cn1ncc(Cl)c1-c1cc(C(=O)NC(CN)Cc2cccc(F)c2)sc1Cl (stereo not given) + Cc1nc(NC(=O)N2CCCC2C(N)=O)sc1-c1ccnc(C(C)(C)C(F)(F)F)c1
Second compound 0.0316 µM
  IC50: 510 nM
Second compound 0.1 µM
  IC50: 405 nM
Second compound 0.316 µM
  IC50: 312 nM
Second compound 1 µM
  IC50: 218 nM
Second compound 3.16 µM
  IC50: 75.9 nM
Second compound 10 µM
  IC50: < 31.6 nM
[1]
  viability, T/C: 105%
[2]
  viability, T/C: 97%
[3]
  viability, T/C: 55.6%
[4]
  viability, T/C: 34.7%
[5]
  viability, T/C: 17.9%
[6]
  viability, T/C: 2.36%
[7]
  viability, T/C: 90.8%
[8]
  viability, T/C: 76.8%
[9]
  viability, T/C: 56.9%
[10]
  viability, T/C: 27.6%
[11]
  viability, T/C: 17.5%
[12]
  viability, T/C: 1.87%
[13]
  viability, T/C: 89.6%
[14]
  viability, T/C: 73.8%
[15]
  viability, T/C: 48.2%
[16]
  viability, T/C: 28%
[17]
  viability, T/C: 15.1%
[18]
  viability, T/C: 1.73%
[19]
  viability, T/C: 72.8%
[20]
  viability, T/C: 66.6%
[21]
  viability, T/C: 41%
[22]
  viability, T/C: 23.3%
[23]
  viability, T/C: 13.6%
[24]
  viability, T/C: 1.42%
[25]
  viability, T/C: 55.2%
[26]
  viability, T/C: 50.3%
[27]
  viability, T/C: 34.4%
[28]
  viability, T/C: 20.5%
[29]
  viability, T/C: 12.2%
[30]
  viability, T/C: 1.25%
[31]
  viability, T/C: 36.9%
[32]
  viability, T/C: 31.7%
[33]
  viability, T/C: 20.4%
[34]
  viability, T/C: 13.5%
[35]
  viability, T/C: 7.71%
[36]
  viability, T/C: 0.35%

## Cn1nccc1Nc1nccc(-c2ccn(C(CO)c3ccc(Cl)c(F)c3)c(=O)c2)n1 (stereo not given) + Cc1nc(NC(=O)N2CCCC2C(N)=O)sc1-c1ccnc(C(C)(C)C(F)(F)F)c1
Second compound 0.0316 µM
  IC50: > 10000 nM
Second compound 0.1 µM
  IC50: > 10000 nM
Second compound 0.316 µM
  IC50: > 10000 nM
Second compound 1 µM
  IC50: > 10000 nM
Second compound 3.16 µM
  IC50: > 10000 nM
Second compound 10 µM
  IC50: < 31.6 nM
[1]
  viability, T/C: 120%
[2]
  viability, T/C: 96.2%
[3]
  viability, T/C: 112%
[4]
  viability, T/C: 112%
[5]
  viability, T/C: 111%
[6]
  viability, T/C: 74.7%
[7]
  viability, T/C: 93.5%
[8]
  viability, T/C: 105%
[9]
  viability, T/C: 108%
[10]
  viability, T/C: 104%
[11]
  viability, T/C: 96.1%
[12]
  viability, T/C: 79.2%
[13]
  viability, T/C: 94.3%
[14]
  viability, T/C: 97.6%
[15]
  viability, T/C: 98.1%
[16]
  viability, T/C: 102%
[17]
  viability, T/C: 92.8%
[18]
  viability, T/C: 75.4%
[19]
  viability, T/C: 83.3%
[20]
  viability, T/C: 79.4%
[21]
  viability, T/C: 72.8%
[22]
  viability, T/C: 85.7%
[23]
  viability, T/C: 82.2%
[24]
  viability, T/C: 70.6%
[25]
  viability, T/C: 64.4%
[26]
  viability, T/C: 63.1%
[27]
  viability, T/C: 56.8%
[28]
  viability, T/C: 72.1%
[29]
  viability, T/C: 67.1%
[30]
  viability, T/C: 67.1%
[31]
  viability, T/C: 40.2%
[32]
  viability, T/C: 39.5%
[33]
  viability, T/C: 41.5%
[34]
  viability, T/C: 45.5%
[35]
  viability, T/C: 54.9%
[36]
  viability, T/C: 55.1%
